In patent publication US11845803B2, “Combination therapies for treatment of BCMA-related cancers and autoimmune disorders” (Fred Hutchinson Cancer Center, priority 2017, dated 2023):
No end group written: not given here.

How the values were obtained:
[1] = system: BCMA-specific T-ChARM T cells co-cultured with K562/BCMA+ cells; assay: Effect of exogenous soluble BCMA / BCMA-Fc on BCMA-specific T-ChARM T cell function; type: cell-based, human
Procedure: (H) IFN-γ production by BCMA-specific T-ChARM T cells in the presence of exogenous soluble BCMA. sBCMA was added to co-cultures of T cells expressing a BCMA-specific T-ChARM and K562 cells transduced with a polynucleotide encoding full-length BCMA (K562/BCMA^+).
(I) Data from another dose-titration experiment showing the effect of sBCMA on IFN-γ production by BCMA-specific T-ChARM T cells recognizing K562 BCMA^+ cells, which included adding sBCMA to culture at another, higher concentration (5000 ng/mL).
(N) Flow cytometry data showing IFN-γ production (y-axis) and CD4 expression (x-axis) by T cells expressing either a C113ST-ChARM (“C113ST”) of this disclosure or a control anti-CD19 CAR (“[…]”), in co-culture with target-expressing K562 cells and administered the BCMA-Fc fusion protein (left panels: 0 ng/ml BCMA-Fc; right panels: 1000 ng/ml BCMA-Fc.
(O) Dose titration showing IFN-γ release by CAR T cells in response to target cell lines as indicated in the presence or absence of exogenous recombinant BCMA (BCMA-Fc fusion). FMC63 (anti-CD19) vs. K562 CD19^+ (control; downward-facing triangle); C113ST T-ChARM T cells vs. RPMI 8226 (upward-facing triangle), U266 (square), and K562 BCMA^+ cells (circle). Data is representative of 2 independent experiments. Bars represent mean+SEM. P-value=<0.05, as determined by one-way ANOVA with post-test. MFI=mean fluorescence intensity.
(P) IFN-γ production (normalized Mean Fluorescence Intensity, MFI) by the T cells shown in FIG. 2O in co-culture with indicated antigen-expressing cells and in the presence or absence of BCMA-Fc (x-axis).
(Q) Cytolytic activity of CD8^+ C113ST T-ChARM T cells against K562 BCMA^+ target cells and of FMC63 CAR-T cells against K562 CD19^+ target cells at varying concentrations of recombinant BCMA, analyzed by a 4 h CRA at E:T ratio of 10:1. Data is representative of 2 independent experiments. Bars represent mean+SEM. P-value=<0.05, as determined by one way ANOVA with post-test. MFI=mean fluorescence intensity.
The effect of sBCMA was examined as well by adding sBCMA to co-cultures of T cells expressing a BCMA-specific T-ChARM and K562 cells transduced with a polynucleotide encoding full-length BCMA (K562/BCMA^+).

C113ST T-ChARM T cells = assay: sBCMA binding to T-ChARM T cells (BCMA-Fc-APC staining after incubation with recombinant BCMA); design: species or system human; conditions: increasing levels of recombinant BCMA
Procedure: (L) sBCMA binding to C113ST-ChARM T cells of this disclosure. T cells were incubated with the indicated levels of recombinant sBCMA (right side of diagram) and then stained with a BCMA-Fc fusion that was conjugated to APC.
To examine whether high levels of sBCMA might inhibit the activity of BCMA-specific T-ChARM T cells, patient bone marrow (BM) sera were examined for sBCMA levels. […] To test whether sBCMA would bind to the T-ChARM T cells, the T cells were incubated with increasing levels of recombinant BCMA and then stained using BCMA-Fc conjugated to APC.

Substance | recognition (IFN-γ production and CD4 expression) by BCMA-targeting T-ChARM T cells ([1]; BCMA-Fc added to co-cultures) | recognition by control anti-CD19 CAR T cells ([1]; BCMA-Fc added, K562 cells expressing CD19) | dose dependence of effect on BCMA T-ChARM T cells ([1]; BCMA-Fc titration) | BCMA-Fc-APC staining of T-ChARM T cells (C113ST T-ChARM T cells) | T-ChARM T cell effector function (IFN-γ release) ([1]; exogenous sBCMA added to co-culture with K562/BCMA+) | IFN-γ production by T-ChARM T cells ([1]; recombinant BCMA not fused to Fc) | lysis of K562 BCMA+ cells by T-ChARM T cells ([1]; recombinant BCMA not fused to Fc, 4 h CRA, E:T 10:1)
BCMA-Fc: recombinant BCMA-Fc fusion protein (MLQMAGQCSQNEYFDSLLHACIPCQLRCSSNTPPLTCQRYCNASVTNSVKGTNA; not fully specified; cysteine pairing not given here; also: fused to dimerising Fc or GST (not given here)) | much-reduced recognition | but not by control anti-CD19 CAR T cells | dose-dependent |  |  |  | 
sBCMA: exogenous soluble / recombinant BCMA not fused to Fc (MLQMAGQCSQNEYFDSLLHACIPCQLRCSSNTPPLTCQRYCNASVTNSVKGTNA) |  |  |  | staining decreased | dose-dependent inhibition | inhibited IFN-γ production in a dose-dependent fashion | did not inhibit lysis
